Among the data in US20250282742A1, “BENZOFURAN DERIVATIVES FOR TARGETING AUTOPHAGY” (Automera PTE. LTD, priority 2024, published 2025) are fold induction and receptor occupancy values, retold here.

The test system of one experiment is p62 puncta in HeLa cells. As to the kind of experiment: p62 puncta assay (immunocytochemistry and imaging, EVOS M7000 or Operetta CLS). The format is cell-based. The settings on record: Homo sapiens, fold change in p62 puncta levels relative to DMSO control, 24 hr. As to the method: HeLa cells were seeded in coated 96-well plates (10,000 cells) and allowed to adhere overnight. After 24 hours of treatment with either vehicle (DMSO) or test compounds, the media was discarded, and cells were rinsed with ice-cold 1×PBS before fixation by 4% formaldehyde or paraformaldehyde for 20 min. Cells were then washed with 1×PBS and permeabilized with 0.1% Triton X-100 in PBS for 20 min and blocked with Blocking Buffer in PBS for 1 hour. The cells were incubated thereafter for 1 hour with anti-p62 primary antibody in Blocking Buffer, followed by incubation with secondary antibody for 1 hour. DAPI dye was used to visualize nuclei of fixed cells. The blocking buffer used were 5% Fetal Bovine Serum (FBS, ThermoFIsher Scientific, 10270106) and Li-cor Intercept (PBS) Blocking Buffer (Li-cor, 927-70001). The primary antibody used was mouse anti-p62 primary antibody (Novus Biologicals, H00008878-MO1). The secondary antibodies used were goat anti-mouse Alexa Fluor Plus 488 secondary antibody (Invitrogen, GOXMS) and goat anti-mouse Alexa Fluor 488 secondary antibody (Invitrogen, A-11029). The DAPI dyes used were DAPI dye (Invitrogen, 62248) and DAPI dye (Invitrogen, D1306).
For the EVOS M7000 System, cells were imaged on the EVOS M7000 microscope using a 20× air objective (Nikon, N.A 0.45). DAPI and p62 channels were illuminated with LED light cubes using integrated hard-coated filter sets for DAPI (357/447 nm) and GFP (470/525 nm) respectively. Images were analysed for p62 puncta count on the Celeste 6.0 software.
For the Operetta CLS System, cells were imaged on the Operetta CLS using a 63× water objective on the DAPI and Alexa 488 channels. Images were analysed for p62 puncta count on the Harmony 5.1 software.
HeLa cells were treated with compounds for 24 hours to evaluate the effect of these compounds on p62 puncta activity. The resulting changes in levels of p62 puncta were assessed by imaging, either on the EVOS M7000 or Operetta CLS systems as described in experimental procedures. The fold change of p62 puncta levels induced by compound treatment relative to vehicle control (DMSO) was determined and summarized in Table 10.

A further experiment deals with T1, Recombinant p62 protein (Homo sapiens, UniProt Q13501).
T1 construct: Recombinant p62 protein was buffer exchanged into Biacore SPR running buffer
As to the kind of experiment: Surface plasmon resonance (SPR) compound binding to immobilised p62. The settings on record: recombinant p62, 15° C. As to the method:
Example 28: Surface Plasmon Resonance (SPR) Analysis
Recombinant p62 protein was buffer exchanged into Biacore SPR running buffer (Cytiva 100671) using the Slide-A-Lyzer Mini Dialysis system 7K MWCO (Thermo Fisher Scientific, Cat no. 69560). The final protein concentration was determined using the Nanodrop One spectrophotometer (Thermo Fisher Scientific, cat no. ND-ONE-W), with calibration for the dialysis buffer.
The prepared protein was diluted in sodium acetate buffer (NaAc, pH 5.5, Cytiva) to concentrations ranging from approximately 0.25-40 μg/mL. Post-immobilization, the protein required approximately 16 hours of equilibration in running buffer supplemented with 1% DMSO at 15° C. to ensure adequate surface equilibration and protein reorganization.
All SPR experiments were conducted at a constant temperature of 15° C. The SPR chip surface was activated using EDC/NHS for a contact time of 6-10 min at a flow rate of 10 μL/min. This was followed by protein immobilization for 2100 seconds and ethanolamine capping for 420 seconds, both at the same flow rate. Immediately after immobilization, the NH2—REEE peptide was analyzed in Single Cycle Kinetics mode (SCK) to verify surface activity, ensuring it binds the sample with the published affinity (−20 μM by SPR).
For general compound binding studies, experiments were performed at 15° C. using a running buffer composed of 10 mM HEPES, 150 mM NaCl, 1 mM DTT, 0.05% Tween 20, and 1% DMSO at pH 7.4. The test compound was initially prepared at a 20 mM concentration in DMSO and subsequently titrated in 2-fold dilutions. For each assay, 2 μL of the compound was mixed with 198 μL of the running buffer, and the mixture was thoroughly pipetted approximately 15 times for homogenization.
A series of blank injections (0 μM concentration) were included for double referencing, with at least 8 or 16 per plate depending on the format. Typical injection parameters were 120 seconds for association and 180 seconds for dissociation at a flow rate of […]. A four-point solvent correction was prepared with DMSO concentrations ranging from 2% to 0.5% in the buffer. Post each compound injection, the system's needles were washed with 50% DMSO.
Analysis of the SPR data was conducted using the Cytiva Evaluation software. The binding levels at the late time-point of each interaction were corrected for reference, then normalized to percentage bound values to account for variations in immobilization levels, protein molecular weight, and compound molecular weight.
Compound binding studies were carried out according to experimental procedures above and SPR % occupancy was determined and summarized in Table 7.
On the technique in general: SPR reads the build-up and loss of mass on a sensor chip optically.

T1 sequence (Q13501 whole entry, species assumed): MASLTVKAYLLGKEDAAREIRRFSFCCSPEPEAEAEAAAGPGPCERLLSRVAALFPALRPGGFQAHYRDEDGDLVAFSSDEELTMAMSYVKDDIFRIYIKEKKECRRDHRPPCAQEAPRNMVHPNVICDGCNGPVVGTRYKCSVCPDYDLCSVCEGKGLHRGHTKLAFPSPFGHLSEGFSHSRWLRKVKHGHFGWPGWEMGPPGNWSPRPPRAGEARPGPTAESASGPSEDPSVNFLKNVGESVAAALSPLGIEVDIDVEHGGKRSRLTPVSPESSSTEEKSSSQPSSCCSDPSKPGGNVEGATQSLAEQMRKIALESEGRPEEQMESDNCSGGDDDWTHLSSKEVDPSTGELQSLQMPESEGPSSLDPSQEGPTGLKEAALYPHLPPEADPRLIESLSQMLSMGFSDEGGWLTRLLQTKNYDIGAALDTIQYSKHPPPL

By fold induction is commonly meant the signal under treatment as a multiple of the control signal. In the experiment on p62 puncta in HeLa cells, `Cc1c(Cc2ccccc2)oc2cc(CNCCO)ccc12` [Compound 42, 2-(((2-benzyl-3-methylbenzofuran-6-yl)methyl)amino)ethan-1-ol] returned a fold induction at 5 µM of less than 2. Besides, at Recombinant p62 protein, the receptor occupancy at 100 µM is 30 to 70%.

`OCCNCc1ccc2cc(CCc3ccc(F)cc3)oc2c1` [Compound 49, 2-(((2-(4-fluorophenethyl)benzofuran-6-yl)methyl)amino)ethan-1-ol] showed a fold induction at 5 µM in the experiment on p62 puncta in HeLa cells greater than 2. In addition, the receptor occupancy at 100 µM at Recombinant p62 protein lay in the range of 30 to 70%.

On to `OCCNCc1ccc2cc(Cc3ccc(F)cc3)oc2c1` [compound 12], for which the fold induction at 5 µM in the experiment with p62 puncta in HeLa cells was greater than 2. Moreover, the receptor occupancy at 100 µM at Recombinant p62 protein was greater than 70%.

For the molecule `OCCNCc1ccc2cc(Cc3ccccc3)oc2c1` [compound 1], the fold induction at 5 µM with p62 puncta in HeLa cells was greater than 2. The receptor occupancy at 100 µM on Recombinant p62 protein is less than 30%.

`OCCNCc1ccc2cc(-c3ccccc3)oc2c1` [Compound 2, 2-(((2-phenylbenzofuran-6-yl)methyl)amino)ethan-1-ol] returned a fold induction at 5 µM in the experiment on p62 puncta in HeLa cells greater than 2. Also, at Recombinant p62 protein, the receptor occupancy at 100 µM was in the range of 30 to 70%.

For `OCCNCc1ccc2cc(Cc3ccc(Cl)cc3)oc2c1` [Compound 13, 2-(((2-(4-chlorobenzyl)benzofuran-6-yl)methyl)amino)ethan-1-ol], the fold induction at 5 µM in the experiment on p62 puncta in HeLa cells is greater than 2. Besides, the receptor occupancy at 100 µM on Recombinant p62 protein was greater than 70%.
